For orientation: IC50 means the concentration that gives 50% inhibition. A word on the inhibition: it is the share of the control response that was lost under treatment.

The source of these data is patent US9115145B2, “Tocotrienol derivatives and associated methods” (FIRST TECH INTERNATIONAL LIMITED, priority 2011, dated 2015).

Experiment [1] relates to +SA mammary epithelial cells. Kind of experiment: MTT assay of +SA cells (antiproliferative activity). The class given is cell-based, mouse. As to conditions: for antiproliferative activity against +SA mammary tumor cells (in words): described from FIG. 32 / text; for IC50: 24 hours treatment, read-out: IC50 antiproliferative activity against +SA mammary epithelial cells. On the procedure:
The antiproliferative activities of Compounds 3-44 against the highly metastatic malignant +SA mammary epithelial cells were evaluated by MTT assay. Materials for the assay were purchased from Sigma Chemical Company (St. Louis, Mo.) unless otherwise stated. The highly malignant +SA mouse mammary epithelial cell line was serially passaged at subconfluent cell density. The +SA mammary tumor cell line was derived from an adenocarcinoma that developed spontaneously in a BALB/c female mouse. +SA cells were maintained in serum-free defined medium consisting of Dulbecco's modified Eagle's medium (DMEM)/F12 containing 5 mg/mL bovine serum albumin (BSA), 10 […], 100 U/mL soybean trypsin inhibitor, 100 U/mL penicillin G, 0.1 mg/mL streptomycin, […], and 10 ng/mL epidermal growth factor. For subculturing, cells were rinsed twice with sterile Ca2+ and Mg2+-free phosphate buffered saline (PBS) and incubated in 0.05% trypsin containing 0.025% EDTA in PBS for 5 min at 37° C. The released cells were centrifuged, resuspended in fresh media and counted using hemocytometer. A stock solution of the compounds was prepared in DMSO. Once dissolved, this solution was added to a small volume of sterile 10% BSA in water and incubated overnight at 37° C. This solution conjugated to BSA was used to prepare various concentrations (0-40 μM) of tocotrienol analogs. DMSO was added to all treatment media such that the final DMSO concentration was the same in all treatment groups within a given experiment and was always less than 0.1%. For cytotoxic studies, cells were seeded at a density of 5×10^4 cells/well (+SA cells) or 1×10^5 cells/well (CL-S1 cells) (6 wells/group) in 24-well culture plates and allowed to grow in their respective control media. After 3 days incubation period (approximately 70% confluency), cells were divided equally into various treatment groups and exposed to their respective treatments for a 24 hours incubation period. Following the 24 hours treatment period, cell viability was measured using the MTT assay.
+SA Mammary epithelial cell viable number was determined by a 3-(4,5-dimethylthiazol-2yl)-2,5-diphenyl tetrazolium bromide (MTT) colorimetric assay. On the assay day, treatment medium was replaced with fresh control medium containing 0.42 mg/mL MTT, and the cells in 24-well plates were incubated at 37° C. for 4 hours. Afterward, the medium was removed, and the MTT crystals were dissolved in isopropyl alcohol (1 mL/well). The optical density of each sample was read at 570 nm on a microplate reader (SpectraCount, Packard BioScience Company), against a blank prepared from cell-free cultures. The number of cells/well was calculated against a standard curve prepared by plating various concentrations of cells, as determined by hemocytometer, at the start of each experiment.
Differences among the various treatment groups in +SA cell cytotoxic studies were determined by analysis of variance (ANOVA) followed by Dunnett's t-test. The difference of P<0.05 was considered to be statistically significant as compared with vehicle-treated controls unless separately described. Linear regression analysis of treatment effects on viable cell number in growth and cytotoxicity studies was used to determine the 50% growth inhibition concentration (IC50) for individual treatments.

Experiment [2] relates to MCF7 human breast cancer cell line. In words: MTT assay of MCF7 cells. The class given is cell-based. The settings on record: Homo sapiens, media containing 1% fetal bovine serum. As to the method: (§1) MDA-MB-231 and MCF7 cells were plated at a density of 8×10^3 cells/well and 10^4 cells/well in 96-well culture plates, respectively. The compounds were fed in serum free media containing 5% and 1% fetal bovine serum for MDA-MB-231 and MCF7 cells, respectively.
For orientation: Tetrazolium assays rely on reduction of a dye to a coloured formazan, in cell work by metabolically active cells.

Experiment [3] concerns MDA-MB-231 human breast cancer cell line. In words: MTT assay of MDA-MB-231 cells. The settings on record: Homo sapiens, media containing 5% fetal bovine serum. It counts as cell-based. On the procedure:
as §1

In experiment [4] the test system is MDA-MB-231 human breast cancer cells. In words: Wound-healing assay (cell migration). It counts as cell-based. As to the method: The highly metastatic human breast cancer MDA-MB-231 cells were cultured in RPMI 1640 medium containing 10 mM HEPES, 4 mM L-glutamine, 10% fetal bovine serum, penicillin (100 IU/mL), and streptomycin (50 μg/mL), and grown in a 5% CO2 atmosphere at 37° C. Cells were plated onto sterile 24-well and allowed to recover for a confluent cell monolayer formed in each well (>95% confluence). Wounds were then inflicted to each cell monolayer using a sterile 200 μL pipette tip. Media were removed, cells monolayers were washed twice with PBS, and then fresh media containing test compounds were added to each well. Test compounds were prepared in DMSO at 5 μM concentration and added to the plates, each in triplicate using DMSO as negative control. The incubation was carried out for 24 h under serum-starved conditions, after which media was removed and cells were fixed and stained using a staining composition sold under the trade name Diff Quick (Dade Behring Diagnostics, Aguada, Puerto Rico). The stain comprised a fixative reagent containing 1.8 mg/L triarylmethane dye in methyl alcohol; a first solution of 1 g/L xanthene dye, buffer, and sodium azide (0.01%) as preservative; and a second solution of 1.25 g/L Thiazine dye mixture (0.625 g/L azure A and 0.625 g/L methylene blue) and buffer. The number of cells migrated on the scratched wound were counted under the microscope in three or more randomly selected fields (magnification: 400×). Final results are expressed as mean±SEM per 400× field. The wound-healing assay is a simple method for the study of directional cell migration in vitro.
Compounds were tested for their ability to inhibit the migration of the highly metastatic MDA-MB-231 human breast cancer cells in the wound-healing assay using the procedure described above. Compounds 6, 10, 12, 13, 24, 26, 27, and 29 inhibited the migration of more than 50% of the human breast cancer cells MDA-MB-231 in the wound healing assay at 5 μM dose. […] The antimigratory activity of tocotrienols may be enhanced by a terminal aromatic functionality. The presence of electron withdrawing group, such as nitro in Compound 29, may eliminate the antiproliferative activity yet retain the antimigratory activity of the compound. While the electron donating groups, such as OH and OMe found in Compounds 23 and 26, respectively, retained both antiproliferative and antimigratory activities.
Utilizing similar procedures follow-up testing was conducted on a variety of compounds using a range of compound concentrations. The results of follow-up antimigratory testing are shown in FIG. 35B and Table III below with IC50 values calculated using statistical software.

Experiment [5] has as its system MCF 10A non-tumorigenic mammary epithelial cells. In words: MTT assay of MCF10A cells. It counts as cell-based, human. As to conditions: for IC50: Homo sapiens. On the procedure: MCF 10A (ATCC cat # CRL-10317) normal human non-tumorigenic mammary epithelial cells were maintained in serum-free defined medium consisting of Dulbecco's modified Eagle's medium (DMEM)/F12 containing 5% horse serum, 1% penicillin/streptomycin, 0.5 μg/mL hydrocortisone, 100 ng/mL cholera toxin, 10 μg/mL insulin, and 20 ng/mL epidermal growth factor (rhEGF). For subculturing, cells were rinsed twice with sterile Ca2+ and Mg2+-free phosphate buffered saline (PBS) and incubated in 0.25% trypsin containing 0.025% EDTA in PBS for 5 min at 37° C. The released cells were centrifuged, re-suspended in fresh media and counted using a hemocytometer. For testing, MCF 10A cells were plated at a density of 10×10^4 cells/well. A stock solution of the compounds was prepared in DMSO. DMSO was added to all treatment media such that the final DMSO concentration was the same in all treatment groups within a given experiment and was always less than 0.1%. The compounds were fed in serum free media. MCF10A mammary epithelial cell's viable number was determined by MTT colorimetric assay. […] IC50 values were calculated by non-linear regression using statistical software. The selectivity index indicated in the table represents the IC50 value for the MCF 10A cell line divided by the IC50 value for the +SA cell line.

Where two headings read alike, the source gives them in different places.

On to `CC(C)=CCC/C(C)=C/CC/C(C)=C/CC[C@]1(C)CCc2c3c(c(C)c(C)c2O1)OCN(Cc1cccc([N+](=O)[O-])c1)C3` [Compound 28, (R)-5,6,8-trimethyl-2-(3-nitrobenzyl)-8-((3E,7E)-4,8,12-trimethyltrideca-3,7,11-trienyl)-1,2,3,8,9,10-hexahydrochromeno[5,6-e][1,3]oxazine], for which the “antiproliferative activity against +SA mammary tumor cells (in words)” value (“antiproliferative activity” for short) in experiment [1] is reported as “significant activity but less so than Compounds 20”.

For `CC(C)=CCC/C(C)=C/CC/C(C)=C/CC[C@]1(C)CCc2cc(O)c(CO)c(C)c2O1` [Compound 34, (R)-7-(hydroxymethyl)-2,8-dimethyl-2-((3E,7E)-4,8,12-trimethyltrideca-3,7,11-trienyl)chroman-6-ol], in experiment [1] (Mus musculus, +SA cell), the 50% inhibitory concentration (IC50) is no less than 6600 nM.

On to `CC(C)=CCC/C(C)=C/CC/C(C)=C/CC[C@]1(C)CCc2c3c(c(C)c(C)c2O1)OCN(C)C3` [Compound 3, (R)-2,5,6,8-tetramethyl-8-((3E,7E)-4,8,12-trimethyltrideca-3,7,11-trienyl)-1,2,3,8,9,10-hexahydrochromeno[5,6-e][1,3]oxazine], for which the IC50 in experiment [1] (Mus musculus, +SA cell) was in the range of 1200 to 2200 nM.

Consider `CC(C)=CCC/C(C)=C/CC/C(C)=C/CC[C@]1(C)CCc2c3c(c(C)c(C)c2O1)OCN(CC1CCNCC1)C3` [Compound 16, (R)-5,6,8-trimethyl-2-(piperidin-4-ylmethyl)-8-((3E,7E)-4,8,12-trimethyltrideca-3,7,11-trienyl)-1,2,3,8,9,10-hexahydrochromeno[5,6-e][1,3]oxazine], for which, in experiment [1], the “antiproliferative activity” value is on record as “strong activity”. Besides, the IC50 is greater than 20000 nM in experiment [2] and 800 nM in experiment [3].

Regarding `CC(C)=CCC/C(C)=C/CC/C(C)=C/CC[C@]1(C)CCc2c(CO)c(O)c(C)c(C)c2O1` [Compound 32, (R)-5-(hydroxymethyl)-2,7,8-trimethyl-2-((3E,7E)-4,8,12-trimethyltrideca-3,7,11-trienyl)chroman-6-ol], in experiment [1] (Mus musculus, +SA cell), the IC50 is 2600 nM.

For `CC(C)=CCC/C(C)=C/CC/C(C)=C/CC[C@]1(C)CCc2c(CO)c(O)cc(C)c2O1` [Compound 33, (R)-5-(hydroxymethyl)-2,8-dimethyl-2-((3E,7E)-4,8,12-trimethyltrideca-3,7,11-trienyl)chroman-6-ol], in experiment [1] (Mus musculus, +SA cell), the IC50 was no less than 6600 nM.

Take `CC(C)=CCC/C(C)=C/CC/C(C)=C/CC[C@]1(C)CCc2c3c(cc(C)c2O1)OCN(CCCCC(=O)O)C3` [Compound 20, 5-((R)-6,8-dimethyl-8-((3E,7E)-4,8,12-trimethyltrideca-3,7,11-trienyl)-9,10-dihydrochromeno[5,6-e][1,3]oxazin-2(1H,3H,8H)-yl)pentanoic acid]: in experiment [1], the “antiproliferative activity” value is on record as “strong activity but less so than the aforementioned compounds”.

As to `CC(C)=CCC/C(C)=C/CC/C(C)=C/CC[C@]1(C)CCc2cc(O)cc(C)c2O1` [Compound 2, δ-tocotrienol, reference compound], the IC50 in experiment [4] (MDA-MB-231, wound-healing assay, dose response, read-out: IC50 antimigratory activity) was greater than 40000 nM; in experiment [1] it was 3000 nM.

As for `COc1ccc(CCN2COc3c(C)c(C)c4c(c3C2)CC[C@@](C)(CC/C=C(\C)CC/C=C(\C)CCC=C(C)C)O4)cc1OC` [Compound 23, (R)-2-(3,4-dimethoxyphenethyl)-5,6,8-trimethyl-8-((3E,7E)-4,8,12-trimethyltrideca-3,7,11-trienyl)-1,2,3,8,9,10-hexahydrochromeno[5,6-e][1,3]oxazine], the “antiproliferative activity” value in experiment [1] is “very high activity”. In addition, the half-inhibitory concentration (IC50) was greater than 20000 nM in experiment [2]; 700 nM in experiment [5] (MCF-10A, MCF10A cells, Table II, non-linear regression, read-out: MCF10A (IC50)); 700 nM in experiment [5] (MCF 10A non-tumorigenic cells, Table I, read-out: IC50 MCF 10A); greater than 50000 nM in experiment [3]. For the same molecule, in experiment [5] (IC50 for MCF 10A divided by IC50 for +SA cell line), the Selectivity index was found to be 0.39.

In the case of `CC(C)=CCC/C(C)=C/CC/C(C)=C/CC[C@]1(C)CCc2c3c(cc(C)c2O1)OCN(C)C3` [Compound 4, (R)-2,6,8-trimethyl-8-((3E,7E)-4,8,12-trimethyltrideca-3,7,11-trienyl)-1,2,3,8,9,10-hexahydrochromeno[5,6-e][1,3]oxazine], the IC50 in experiment [1] (Mus musculus, +SA cell) lay within 1200 to 2200 nM.

In the case of `CC(C)=CCC/C(C)=C/CC/C(C)=C/CC[C@]1(C)CCc2c3c(cc(C)c2O1)OCN(Cc1cccc([N+](=O)[O-])c1)C3` [Compound 29, (R)-6,8-dimethyl-2-(3-nitrobenzyl)-8-((3E,7E)-4,8,12-trimethyltrideca-3,7,11-trienyl)-1,2,3,8,9,10-hexahydrochromeno[5,6-e][1,3]oxazine], in experiment [4] (Homo sapiens, MDA-MB-231, 5 μM dose, 24 h, wound-healing assay), the inhibition at 5 µM is greater than 50%. In addition, the “antiproliferative activity” value in experiment [1] is “inactive”.

In the case of `CCOC(CCN1COc2c(C)c(C)c3c(c2C1)CC[C@@](C)(CC/C=C(\C)CC/C=C(\C)CCC=C(C)C)O3)OCC` [Compound 14, (R)-2-(3,3-diethoxypropyl)-5,6,8-trimethyl-8-((3E,7E)-4,8,12-trimethyltrideca-3,7,11-trienyl)-1,2,3,8,9,10-hexahydrochromeno[5,6-e][1,3]oxazine], the “antiproliferative activity” value in experiment [1] is given as “significantly decreased activity”.
